Consider 5 molecules from patent publication US20240270762A1, “PENICILLIN-BINDING PROTEIN INHIBITORS” (priority 2021, published 2024).

Experiment [1] addresses T1, PBP1a from Acinetobacter baumannii (ATCC 19606) (Acinetobacter baumannii, UniProt A0ABX6CK30).
T1 sequence (A0ABX6CK30 1-851): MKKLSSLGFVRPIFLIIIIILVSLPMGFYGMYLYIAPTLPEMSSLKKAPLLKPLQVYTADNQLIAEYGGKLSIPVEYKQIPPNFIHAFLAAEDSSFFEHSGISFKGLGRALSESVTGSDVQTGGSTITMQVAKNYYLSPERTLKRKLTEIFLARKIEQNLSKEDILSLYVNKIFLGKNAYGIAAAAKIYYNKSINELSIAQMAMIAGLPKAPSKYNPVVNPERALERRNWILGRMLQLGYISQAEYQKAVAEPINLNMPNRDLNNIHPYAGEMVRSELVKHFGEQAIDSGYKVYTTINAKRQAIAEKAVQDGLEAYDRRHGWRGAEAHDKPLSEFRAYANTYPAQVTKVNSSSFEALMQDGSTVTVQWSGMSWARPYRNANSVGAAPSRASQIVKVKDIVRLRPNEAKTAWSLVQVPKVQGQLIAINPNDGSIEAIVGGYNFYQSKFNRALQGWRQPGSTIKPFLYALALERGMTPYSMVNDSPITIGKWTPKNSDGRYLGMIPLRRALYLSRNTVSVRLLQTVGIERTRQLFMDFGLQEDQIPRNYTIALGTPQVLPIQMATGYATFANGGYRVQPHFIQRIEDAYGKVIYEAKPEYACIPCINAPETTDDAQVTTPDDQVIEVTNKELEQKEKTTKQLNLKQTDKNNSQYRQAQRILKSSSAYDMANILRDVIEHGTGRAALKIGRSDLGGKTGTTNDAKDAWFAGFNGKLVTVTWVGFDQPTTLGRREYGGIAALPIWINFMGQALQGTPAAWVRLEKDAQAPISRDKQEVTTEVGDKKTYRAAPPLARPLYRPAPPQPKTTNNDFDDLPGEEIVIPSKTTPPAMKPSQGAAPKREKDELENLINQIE
Briefly: Bocillin-FL fluorescence polarization competition binding, A. baumannii PBP1a. Conditions: fluorescence polarization competition binding assay using Bocillin-FL; read-out: A. baumannii PBP1a Potency. The procedure, abridged:
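Purified PBP was preincubated with inhibitor (E. coli PBP3 1.5 μM, 30 min; P. aeruginosa PBP3 0.75 μM, A. baumannii PBP3 0.2 μM and PBP1a 1 μM, 15 min), then Bocillin-FL (0.1 μM; 0.05 μM for PBP1a) added and FP read up to 60 min. EC50 = 50% loss of bound probe.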
On the technique in general: In fluorescence polarisation assays a small probe gives low polarisation when free and higher when bound to something large.

For another experiment, the system named is N. gonorrhoeae FA1090. Nature of the experiment: Liquid broth MIC in Fastidious broth. Conditions: Neisseria gonorrhoeae, FA1090, read-out: Minimum Inhibitory Concentration, FA 1090.
A further experiment has as its system N. gonorrhoeae MS11. Nature of the experiment: Liquid broth MIC in Fastidious broth. The note with it: Neisseria gonorrhoeae, MS11, read-out: Minimum Inhibitory Concentration, MS11.
Another experiment deals with N. gonorrhoeae WHO L. Briefly: Liquid broth MIC in Fastidious broth. The note with it: Neisseria gonorrhoeae, read-out: Minimum Inhibitory Concentration, WHO L.
In the next experiment the test system is N. gonorrhoeae WHO M. Nature of the experiment: Liquid broth MIC in Fastidious broth. The note with it: Neisseria gonorrhoeae, read-out: Minimum Inhibitory Concentration, WHO M.
For another experiment, the system named is N. gonorrhoeae WHO K. Nature of the experiment: Liquid broth MIC in Fastidious broth. Conditions: Neisseria gonorrhoeae, read-out: Minimum Inhibitory Concentration, WHO K.
A further experiment relates to N. gonorrhoeae WHO Q. Briefly: Liquid broth MIC in Fastidious broth. Conditions: Neisseria gonorrhoeae, read-out: Minimum Inhibitory Concentration, WHO Q.
The subject of the next experiment is N. gonorrhoeae CDC-0197. Briefly: Liquid broth MIC in Fastidious broth. Conditions: Neisseria gonorrhoeae, CDC0197, read-out: Minimum Inhibitory Concentration, CDC-0197.

Converted amounts (≈) assume the structure as drawn.

In the case of `O=C(NCCCN1CCN(C(=O)N[C@@H](C(=O)N[C@H]2Cc3ccc(F)c(C(=O)O)c3OB2O)c2cc(F)c(O)c(O)c2Cl)C(=O)C1=O)c1cccc(O)c1Cl` [Example 303, (R)-3-((R)-2-(4-(3-(2-chloro-3-hydroxybenzamido)propyl)-2,3-dioxopiperazine-1-carboxamido)-2-(2-chloro-5-fluoro-3,4-dihydroxyphenyl)acetamido)-7-fluoro-2-hydroxy-3,4-dihydro-2H-benzo[e][1,2]oxaborinine-8-carboxylic acid], in experiment [1], the IC50 is > 250 µM. Further, the MIC in the experiment with N. gonorrhoeae FA1090 was 1 to 2 µg/mL (≈ 1.26 to 2.52 µM); in the experiment on N. gonorrhoeae MS11, 4 to 8 µg/mL (≈ 5.04 to 10.1 µM); with N. gonorrhoeae WHO L, > 64 µg/mL; with N. gonorrhoeae WHO M, 4 to 8 µg/mL (≈ 5.04 to 10.1 µM); in the experiment with N. gonorrhoeae WHO K, > 64 µg/mL; in the experiment on N. gonorrhoeae WHO Q, > 64 µg/mL. Moreover, the MIC in the experiment with N. gonorrhoeae CDC-0197 was in the range of 16 to 32 µg/mL (≈ 20.1 to 40.3 µM).

With `O=C(NCCCN1CCN(C(=O)NC(C(=O)N[C@H]2Cc3ccc(F)c(C(=O)O)c3OB2O)c2cc(F)c(O)c(O)c2Cl)C(=O)C1=O)c1ccc(O)c(F)c1` (stereo partly drawn) [Example 304, (3R)-3-(2-(2-chloro-5-fluoro-3,4-dihydroxyphenyl)-2-(4-(3-(3-fluoro-4-hydroxybenzamido)propyl)-2,3-dioxopiperazine-1-carboxamido)acetamido)-7-fluoro-2-hydroxy-3,4-dihydro-2H-benzo[e][1,2]oxaborinine-8-carboxylic acid], in experiment [1], the IC50 was > 250 µM. The MIC in the experiment on N. gonorrhoeae FA1090 was 1 to 2 µg/mL (≈ 1.29 to 2.57 µM); in the experiment on N. gonorrhoeae MS11, 16 to 32 µg/mL (≈ 20.6 to 41.1 µM); in the experiment on N. gonorrhoeae WHO L, > 64 µg/mL; in the experiment with N. gonorrhoeae WHO M, 16 to 32 µg/mL (≈ 20.6 to 41.1 µM); in the experiment on N. gonorrhoeae WHO K, > 64 µg/mL; in the experiment with N. gonorrhoeae WHO Q, > 64 µg/mL. Moreover, the MIC in the experiment with N. gonorrhoeae CDC-0197 was > 64 µg/mL.

`O=C(NCCCN1CCN(C(=O)NC(C(=O)N[C@H]2Cc3ccc(F)c(C(=O)O)c3OB2O)c2cc(F)c(O)c(O)c2Cl)C(=O)C1=O)c1ccc(O)c(Cl)c1` (stereo partly drawn) [Example 305, (3R)-3-(2-(4-(3-(3-chloro-4-hydroxybenzamido)propyl)-2,3-dioxopiperazine-1-carboxamido)-2-(2-chloro-5-fluoro-3,4-dihydroxyphenyl)acetamido)-7-fluoro-2-hydroxy-3,4-dihydro-2H-benzo[e][1,2]oxaborinine-8-carboxylic acid]: the IC50 in experiment [1] is > 250 µM. In addition, the MIC in the experiment on N. gonorrhoeae FA1090 is 1 to 2 µg/mL (≈ 1.26 to 2.52 µM); with N. gonorrhoeae MS11 it was 16 to 32 µg/mL (≈ 20.1 to 40.3 µM); in the experiment with N. gonorrhoeae WHO L, > 64 µg/mL; in the experiment with N. gonorrhoeae WHO M it was 16 to 32 µg/mL (≈ 20.1 to 40.3 µM); in the experiment with N. gonorrhoeae WHO K, > 64 µg/mL; in the experiment on N. gonorrhoeae WHO Q, > 64 µg/mL. Besides, the MIC in the experiment with N. gonorrhoeae CDC-0197 is > 64 µg/mL.

In the case of `O=C(NCCCN1CCN(C(=O)NC(C(=O)N[C@H]2Cc3ccc(F)c(C(=O)O)c3OB2O)c2cc(F)c(O)c(O)c2Cl)C(=O)C1=O)c1ccc(O)c(F)c1F` (stereo partly drawn) [Example 306, (3R)-3-(2-(2-chloro-5-fluoro-3,4-dihydroxyphenyl)-2-(4-(3-(2,3-difluoro-4-hydroxybenzamido)propyl)-2,3-dioxopiperazine-1-carboxamido)acetamido)-7-fluoro-2-hydroxy-3,4-dihydro-2H-benzo[e][1,2]oxaborinine-8-carboxylic acid], the IC50 in experiment [1] was > 250 µM. The MIC with N. gonorrhoeae FA1090 is 1 to 2 µg/mL (≈ 1.26 to 2.51 µM); in the experiment on N. gonorrhoeae MS11, 16 to 32 µg/mL (≈ 20.1 to 40.2 µM); in the experiment on N. gonorrhoeae WHO L it was > 64 µg/mL; in the experiment with N. gonorrhoeae WHO M it was 16 to 32 µg/mL (≈ 20.1 to 40.2 µM); in the experiment on N. gonorrhoeae WHO K it was > 64 µg/mL; in the experiment with N. gonorrhoeae WHO Q, > 64 µg/mL. Also, in the experiment on N. gonorrhoeae CDC-0197, the MIC was > 64 µg/mL.

With `O=C(NCCCN1CCN(C(=O)NC(C(=O)N[C@H]2Cc3ccc(F)c(C(=O)O)c3OB2O)c2cc(F)c(O)c(O)c2Cl)C(=O)C1=O)c1ccc(O)cc1O` (stereo partly drawn) [Example 307, (3R)-3-(2-(2-chloro-5-fluoro-3,4-dihydroxyphenyl)-2-(4-(3-(2,4-dihydroxybenzamido)propyl)-2,3-dioxopiperazine-1-carboxamido)acetamido)-7-fluoro-2-hydroxy-3,4-dihydro-2H-benzo[e][1,2]oxaborinine-8-carboxylic acid], in experiment [1], the IC50 was > 250 µM. The MIC with N. gonorrhoeae FA1090 is 1 to 2 µg/mL (≈ 1.29 to 2.58 µM); in the experiment with N. gonorrhoeae MS11, 16 to 32 µg/mL (≈ 20.6 to 41.2 µM); in the experiment on N. gonorrhoeae WHO L it was > 64 µg/mL; in the experiment with N. gonorrhoeae WHO M, 16 to 32 µg/mL (≈ 20.6 to 41.2 µM); in the experiment with N. gonorrhoeae WHO K, > 64 µg/mL; in the experiment with N. gonorrhoeae WHO Q, > 64 µg/mL. In addition, the MIC with N. gonorrhoeae CDC-0197 is > 64 µg/mL.
